{"source": "patent US10799484B2", "about": "“Compositions and methods for treating synucleinopathies” (priority 2017, dated 2020)", "key": {"humans": {"test_system": "humans", "conditions": "for MTD-1 (Pramipexole alone): Period 1", "description": "The ability of the 5HT3-antagonists to prevent the gastro-intestinal (GI) adverse effects (AEs) of pramipexole in humans was tested.\nA Phase I study was conducted in subjects receiving a single oral dose of pramipexole dihydrochloride monohydrate (“pramipexole”) with or without a single oral dose of ondansetron hydrochloride dihydrate (“ondansetron”). The study was single center, single-blind study.\nFollowing enrollment in the study, participants received single increasing oral doses of pramipexole given once daily in the morning (Period 1 of the study). The starting dose of pramipexole was 0.5 mg and the dose was increased daily by 0.5 mg increments. Once a subject had reached his/her first intolerable dose (FID-1), upward dose escalation was discontinued.\nWhen a subject reached FID-1 on pramipexole alone, the subject was washed out for at least 5 days, and then entered Period 2 of the study during which the subject received single daily oral doses of pramipexole starting at 0.5 mg and titrated upward by 0.5 mg increments, together with oral ondansetron hydrochloride dihydrate (10 mg, equivalent to 8 mg ondansetron base) until subjects again reached an intolerable dose defined as above. The FID on oral pramipexole plus oral ondansetron was referred to as FID-2.\nIf a subject reached FID-2 during Period 2 at the same or lower dose than FID-1, and providing the investigator judged there were no safety issues and the subject was consenting, the subject received the same dose of pramipexole as the FID-2 dose together with a higher dose of oral ondansetron hydrochloride dihydrate (20 mg, equivalent to 16 mg ondansetron base) on the next day and the protocol specified that said subject should continue with the remainder of the dose titration with the higher dose of oral ondansetron hydrochloride dihydrate (20 mg, equivalent to 16 mg ondansetron base) until they reach the intolerable dose (FID2+). All other provisions of the protocol remained unchanged. Assessments were the same as those planned for the dose escalation day.\nOn each study day, subjects were followed up for up to 8 hours following drug administration for AEs, vital signs, ECGs. In addition, a laboratory panel was taken at screening and at the end of the study."}, "patients": {"test_system": "patients", "conditions": "5 mg/day, cited from earlier work"}, "[1]": {"biological_target": "synuclein oligomer formation (Homo sapiens, UniProt P37840)", "conditions": "in vitro; cited from earlier work"}, "[2]": {"test_system": "dopaminergic neurons in a mouse PD model", "conditions": "cited from earlier work"}, "[3]": {"biological_target": "human wild-type alpha-synuclein (Homo sapiens, UniProt P37840)", "conditions": "in vitro; by H2O2 plus cytochrome c; cited from earlier work"}, "[4]": {"test_system": "human neuroblastoma SH-SY5Y cells", "conditions": "cited from earlier work"}, "PD patients": {"test_system": "PD patients", "conditions": "doses approved for motor symptoms of PD; 535 PD patients; cited from earlier work"}}, "note": "Like-named read-outs stand apart in the source and are kept apart here.", "data": [{"compound": "CCCN[C@H]1CCc2nc(N)sc2C1", "note": "[Pramipexole, (S)-6-propylamino-4,5,6,7-tetrahydro-1,3-benzothiazole-2-amine]", "values": [{"measurement": "dose limiting toxicity", "setting": "humans; in vivo", "value": "gastro-intestinal adverse events"}, {"measurement": "MTD-1 (Pramipexole alone)", "setting": "humans; subject 1001", "value": 2.0, "unit": "mg"}, {"measurement": "MTD-1 (Pramipexole alone)", "setting": "humans; subject 1005", "value": 1.5, "unit": "mg"}, {"measurement": "MTD-1 (Pramipexole alone)", "setting": "humans; subject 1006, cell wraps: NA (not tolerated at 0.5 mg), the starting dose", "value": "NA (not tolerated at"}, {"measurement": "MTD-1 (Pramipexole alone)", "setting": "humans; subject 1007", "value": 4.0, "unit": "mg"}, {"measurement": "MTD-1 (Pramipexole alone)", "setting": "humans; subject 1008", "value": 1.0, "unit": "mg"}, {"measurement": "patients with nausea", "setting": "patients", "value": 76, "unit": "%"}, {"measurement": "patients with vomiting", "setting": "patients", "value": 39, "unit": "%"}, {"measurement": "patients not able to complete the study", "setting": "patients; presumably because of intolerable GI adverse events", "value": 36, "unit": "%"}, {"measurement": "synuclein oligomer formation", "setting": "[1]", "value": "diminishes"}, {"measurement": "toxic effects of rotenone on dopaminergic neurons", "setting": "[2]", "value": "inhibits"}, {"measurement": "immunoreactivity for alpha-synuclein", "setting": "[2]; rotenone", "value": "reducing"}, {"measurement": "oligomerization of human wild-type alpha-synuclein", "setting": "[3]", "value": "decreases"}, {"measurement": "aggregation of alpha-synuclein", "setting": "[4]", "value": "inhibit"}, {"measurement": "neuroprotective (disease modifying) activity", "setting": "PD patients", "value": "failed to evidence"}]}]}
